Source: US20110105623A1 (Biogenic Innovations, LLC, priority 2009, published 2011)

Columns and labels:
Type in all cases: cell-based
[1] = system: Bacillus coagulans; assay: Probiotic growth in media supplemented with MSM; settings: […] MSM
Description: (§1) Plates were then counted. […] Data are presented in Cfu/mL.

[2] = system: Lactobacillus acidophilus; assay: Probiotic growth in media supplemented with MSM
Description: as §1

[3] = system: Pseudomonas aeruginosa; assay: USP AET, MSM in TSB; set-up: key: Colonies too numerous to count (TNTC); settings: 48 hrs
Description: (§2) Compounds or formulated products having antimicrobial activity may be evaluated with the United States Pharmacopeia (USP) Antimicrobial Effectiveness Test (AET). The AET involves the addition of specified microorganisms (Candida albicans, Aspergillus niger, Escherichia coli, Pseudomonas aeruginosa and Staphylococcus aureus) directly to a test product at relatively high concentrations to simulate contamination. The product is held for one month, with weekly analysis of microorganism levels. Depending on the route of administration of a product, satisfaction of the AET generally requires a 1 to 3 log reduction in bacteria from initial levels, which should occur in one to two weeks, with no further increase in bacteria after two weeks. For yeast and mold, no increase from the initial inoculums level is permitted.
(§3) Inoculations were made using Candida albicans, Aspergillus niger, Escherichia coli, Pseudomonas aeruginosa and Staphylococcus aureus. Tryptic soy broth (TSB) was used as the culturing media. […] The inoculated media was held for one month, during which time the added microorganisms were enumerated weekly to determine if they were growing, dying off, or remaining near the initial inoculation level. Data points were measured in triplicate at 48 hours, 3, 5, 14, 20, 28, and 30 days. The acceptance criteria for antimicrobial effectiveness are described in detail in the USP, herein incorporated by reference.

[4] = system: Escherichia coli; assay: USP AET, MSM in TSB; set-up: key: Colonies too numerous to count (TNTC); settings: 48 hrs
Description: as §2, §3

Substance: Methylsulfonylmethane [MSM]
- Growth of Bacillus coagulans ([1]; 32 h): 11.70 log10 CFU/mL
- Growth of Bacillus coagulans ([1]; 40 h): 10.55 log10 CFU/mL
- Growth of Bacillus coagulans ([1]; 48 h): 10.88 log10 CFU/mL
- Growth of Bacillus coagulans ([1]; 56 h): 10.86 log10 CFU/mL
- Growth of Bacillus coagulans ([1]; 64 h): 10.97 log10 CFU/mL
- Growth of Bacillus coagulans ([1]; 72 h): 11.05 log10 CFU/mL
- Growth of Lactobacillus acidophilus ([2]; 0.125% MSM, 0 h): 1.37 log10 CFU/mL
- Growth of Lactobacillus acidophilus ([2]; 0.125% MSM, 8 h): 2.19 log10 CFU/mL
- Growth of Lactobacillus acidophilus ([2]; 0.125% MSM, 16 h): 4.83 log10 CFU/mL
- Growth of Lactobacillus acidophilus ([2]; 0.125% MSM, 24 h): 7.14 log10 CFU/mL
- Growth of Lactobacillus acidophilus ([2]; 0.125% MSM, 32 h): 9.15 log10 CFU/mL
- Growth of Lactobacillus acidophilus ([2]; 0.125% MSM, 40 h): 9.53 log10 CFU/mL
- Growth of Lactobacillus acidophilus ([2]; 0.125% MSM, 48 h): 9.59 log10 CFU/mL
- Growth of Lactobacillus acidophilus ([2]; 0.125% MSM, 56 h): 10.16 log10 CFU/mL
- Growth of Lactobacillus acidophilus ([2]; 0.125% MSM, 64 h): 9.40 log10 CFU/mL
- Growth of Lactobacillus acidophilus ([2]; 0.125% MSM, 72 h): 8.56 log10 CFU/mL
- Growth of Lactobacillus acidophilus ([2]; 0.2% MSM, 0 h): 1.37 log10 CFU/mL
- Growth of Lactobacillus acidophilus ([2]; 0.2% MSM, 8 h): 1.43 log10 CFU/mL
- Growth of Lactobacillus acidophilus ([2]; 0.2% MSM, 16 h): 5.74 log10 CFU/mL
- Growth of Lactobacillus acidophilus ([2]; 0.2% MSM, 24 h): 8.19 log10 CFU/mL
- Growth of Lactobacillus acidophilus ([2]; 0.2% MSM, 32 h): 9.85 log10 CFU/mL
- Growth of Lactobacillus acidophilus ([2]; 0.2% MSM, 40 h): 9.50 log10 CFU/mL
- Growth of Lactobacillus acidophilus ([2]; 0.2% MSM, 48 h): 9.32 log10 CFU/mL
- Growth of Lactobacillus acidophilus ([2]; 0.2% MSM, 56 h): 9.26 log10 CFU/mL
- Growth of Lactobacillus acidophilus ([2]; 0.2% MSM, 64 h): 9.37 log10 CFU/mL
- Growth of Lactobacillus acidophilus ([2]; 0.2% MSM, 72 h): 8.36 log10 CFU/mL
- Growth of Lactobacillus acidophilus ([2]; 0.50% MSM, 0 h): 1.30 log10 CFU/mL
- Growth of Lactobacillus acidophilus ([2]; 0.50% MSM, 8 h): 2.01 log10 CFU/mL
- Growth of Lactobacillus acidophilus ([2]; 0.50% MSM, 16 h): 3.82 log10 CFU/mL
- Growth of Lactobacillus acidophilus ([2]; 0.50% MSM, 24 h): 6.47 log10 CFU/mL
- Growth of Lactobacillus acidophilus ([2]; 0.50% MSM, 32 h): 9.15 log10 CFU/mL
- Growth of Lactobacillus acidophilus ([2]; 0.50% MSM, 40 h): 9.58 log10 CFU/mL
- Growth of Lactobacillus acidophilus ([2]; 0.50% MSM, 48 h): 10.45 log10 CFU/mL
- Growth of Lactobacillus acidophilus ([2]; 0.50% MSM, 56 h): 9.33 log10 CFU/mL
- Growth of Lactobacillus acidophilus ([2]; 0.50% MSM, 64 h): 9.53 log10 CFU/mL
- Growth of Lactobacillus acidophilus ([2]; 0.50% MSM, 72 h): 8.57 log10 CFU/mL
- Growth of Lactobacillus acidophilus ([2]; 1% MSM, 0 h): 1.48 log10 CFU/mL
- Growth of Lactobacillus acidophilus ([2]; 1% MSM, 8 h): 2.25 log10 CFU/mL
- Growth of Lactobacillus acidophilus ([2]; 1% MSM, 16 h): 3.79 log10 CFU/mL
- Growth of Lactobacillus acidophilus ([2]; 1% MSM, 24 h): 6.77 log10 CFU/mL
- Growth of Lactobacillus acidophilus ([2]; 1% MSM, 32 h): 9.05 log10 CFU/mL
- Growth of Lactobacillus acidophilus ([2]; 1% MSM, 40 h): 9.49 log10 CFU/mL
- Growth of Lactobacillus acidophilus ([2]; 1% MSM, 48 h): 10.98 log10 CFU/mL
- Growth of Lactobacillus acidophilus ([2]; 1% MSM, 56 h): 10.90 log10 CFU/mL
- Growth of Lactobacillus acidophilus ([2]; 1% MSM, 64 h): 10.34 log10 CFU/mL
- Growth of Lactobacillus acidophilus ([2]; 1% MSM, 72 h): 8.68 log10 CFU/mL
- Growth of Lactobacillus acidophilus ([2]; 5% MSM, 0 h): 1.52 log10 CFU/mL
- Growth of Lactobacillus acidophilus ([2]; 5% MSM, 8 h): 1.37 log10 CFU/mL
- Growth of Lactobacillus acidophilus ([2]; 5% MSM, 16 h): 2.69 log10 CFU/mL
- Growth of Lactobacillus acidophilus ([2]; 5% MSM, 24 h): 5.36 log10 CFU/mL
- Growth of Lactobacillus acidophilus ([2]; 5% MSM, 32 h): 8.91 log10 CFU/mL
- Growth of Lactobacillus acidophilus ([2]; 5% MSM, 40 h): 9.25 log10 CFU/mL
- Growth of Lactobacillus acidophilus ([2]; 5% MSM, 48 h): 10.88 log10 CFU/mL
- Growth of Lactobacillus acidophilus ([2]; 5% MSM, 56 h): 10.01 log10 CFU/mL
- Growth of Lactobacillus acidophilus ([2]; 5% MSM, 64 h): 8.95 log10 CFU/mL
- Growth of Lactobacillus acidophilus ([2]; 5% MSM, 72 h): 6.66 log10 CFU/mL
- Growth of Lactobacillus acidophilus ([2]; […] MSM, 0 h): 1.48 log10 CFU/mL
- Growth of Lactobacillus acidophilus ([2]; […] MSM, 8 h): 2.20 log10 CFU/mL
- Growth of Lactobacillus acidophilus ([2]; […] MSM, 16 h): 4.24 log10 CFU/mL
- Growth of Lactobacillus acidophilus ([2]; […] MSM, 24 h): 5.78 log10 CFU/mL
- Growth of Lactobacillus acidophilus ([2]; […] MSM, 32 h): 9.16 log10 CFU/mL
- Growth of Lactobacillus acidophilus ([2]; […] MSM, 40 h): 9.35 log10 CFU/mL
- Growth of Lactobacillus acidophilus ([2]; […] MSM, 48 h): 10.16 log10 CFU/mL
- Growth of Lactobacillus acidophilus ([2]; […] MSM, 56 h): 11.10 log10 CFU/mL
- Growth of Lactobacillus acidophilus ([2]; […] MSM, 64 h): 11.58 log10 CFU/mL
- Growth of Lactobacillus acidophilus ([2]; […] MSM, 72 h): 8.44 log10 CFU/mL
- AET microorganism count ([3]; 1:100 dilution of MSM): TNTC
- AET microorganism count ([3]; 1:1000 dilution of MSM): TNTC
- AET microorganism count ([4]; 1:100 dilution of MSM): TNTC
- AET microorganism count ([4]; 1:1000 dilution of MSM): TNTC
